{"source": "patent US12054485B2", "about": "“Substituted imidazoquinolines” (BIONTECH SE, priority 2017, dated 2024)", "origin": "cited, not measured here", "system": "superficial basal cell carcinomas", "conditions": "5% cream (Aldara), topical; cited from earlier work"}
{"smiles": "CC(C)Cn1cnc2c(N)nc3ccccc3c21", "note": "[Imiquimod, imiquimod]", "values": [{"measurement": "5-year clearance of superficial basal cell carcinomas", "value": "approx. 80%"}]}
